“Also recorded” adds a separate entry of the source.
Columns and labels:
[1] = Balloon loading and release quantification (3 min PBS soak, DMSO strip, fluorescence); type: physicochemical
Method: Balloon loading and release quantification: Angioplasty balloons (2.5 mm×20 mm) were coated with PPAA and MK2i-568 and then soaked in PBS with calcium and magnesium for 3 minutes to measure balloon release. The balloons were then soaked again in DMSO under sonication for 3 minutes to remove any remaining MK2i layers. The fluorescence of the PBS and DMSO solutions was measured on a TECAN Infinite M1000 Pro plate reader and compared to a standard curve of MK2i-568 in PBS and DMSO, respectively.
Balloon Loading and Release: Balloon release and total loading was quantified for different lactosucrose (LS) coating conditions. […] The fluorescence of these two solutions was then measured and used to quantify MK2i concentration (FIG. 5B and FIG. 5C).
Increasing balloon loading and release: To increase the amount of MK2i loaded onto and released from the balloons, two strategies were compared. […] Loading and release were measured as before—3 min wash in PBS followed by sonication in DMSO. The solution fluorescence was measured to determine loading and release.
Balloon loading and release quantification: Angioplasty balloons (2.5 mm×20 mm, Maverick OTW, Boston Scientific) were coated with PPAA and MK2i-568 and then soaked in PBS with calcium and magnesium for 3 minutes to measure balloon release. […]

[2] = system: cells of ex vivo rat aortas (isolated SMCs); test: Cellular uptake of fluorescent MK2i in treated rat aortas by flow cytometry; type: cell-based; details: flow cytometry 1 hour after treatment
Method: Flow Cytometry: After aorta treatment, samples were incubated in DMEM (+HEPES, +L-glutamine, +3% FBS, +1% Antibiotic/Antimycotic) for 1 hour to allow for cell uptake. The aortas were subsequently transferred to 500 μL of cold PBS+1% FBS and cut with scissors into small (˜1 mm) sized pieces. Digestion media in DMEM was then added to the PBS/tissue tube (500 μL) to achieve a final enzyme concentration of 0.7 mg/mL liberase, 4 mg/mL collagenase, and 0.2 mg/mL DNase and the tubes were placed in a 37° C. incubator on a shaker for ˜90 minutes or until digestion was apparent. After incubation, the samples were filtered through a 70 μm cell strainer and centrifuged at 500 g for 8 minutes. […] Cells were read for fluorescence on a Guava easyCyte HT and the resulting data was processed in FlowJo.
MK2i tissue transfer and cell uptake: Coated balloons (6 layers, 100 μM MK2i, 10 μM PPAA) were inflated in ex vivo rat aortas for 3 minutes and samples were cryosectioned to visualize fluorescent MK2i delivery (FIG. 9A, FIG. 9B, and FIG. 9C). ROIs were drawn around the vessel wall and total MK2i fluorescence was normalized to vessel wall cross sectional area. […] Cellular uptake was also measured with flow cytometry, quantifying cellular association of fluorescent MK2i within the treated tissue. […]

ex vivo rat aortas [3] = test: MK2i transfer from coated balloons to ex vivo rat aorta (confocal fluorescence, tissue lysate fluorescence); type: in vitro ADME
Method: Aorta treatment: Harvested aortas were damaged with an angioplasty balloon prior to treatment (3×, 15 seconds each, 25% overstretch). Coated balloons were then inserted into the aorta and pressurized for 3 minutes in DMEM (+HEPES, +L-glutamine, +3% FBS, +1% Antibiotic/Antimycotic), with deflation and reinflation at each minute mark to allow for maximum release and tissue transfer. After 3 minutes, the balloon was deflated and removed. The treated artery was then washed briefly with DMEM to remove excess MK2i and then processed for further experimentation or data collection. […]
Delivery visualization and quantification: Immediately after aorta treatment, samples were placed into OCT and frozen for cryosectioning. […] Then, total intensity of MK2i-568 within the arterial wall was calculated by subtracting the intensity of the inside segment from the intensity of the total segment. […]
MK2i Delivery and Retention Quantification: Tissue lysates prepped for western blotting were measured for presence of fluorescently labeled MK2i to quantify tissue delivery and retention. Tissue lysate fluorescence was measured on a TECAN Infinite M1000 Pro plate reader and compared to a standard curve of fluorescent MK2i to calculate tissue MK2i concentration. […]

ex vivo rat aortas [4] = test: Immunofluorescence of balloon damaged rat aortas after 7 d in flow loop bioreactor; type: cell-based; details: 7 d after balloon injury

Molecule	MK2i release from balloon ([1]; 3 minutes in PBS)	MK2i loading (comparison in words) ([1]; between coating conditions)	cellular / intracellular uptake of MK2i [2]	MK2i transfer to the tissue (fluorescence in vessel wall) (ex vivo rat aortas [3]; immediately after 3 min balloon inflation)	depth of MK2i delivery into the vessel wall (intensity profile) (ex vivo rat aortas [3]; immediately after balloon inflation)	MYH expression (ex vivo rat aortas [4])	SM22 expression (ex vivo rat aortas [4])
OC[C@H]1O[C@@H](O[C@H]2[C@H](O)[C@@H](O)[C@@H](O[C@]3(CO)O[C@H](CO)[C@@H](O)[C@@H]3O)O[C@@H]2CO)[C@H](O)[C@@H](O)[C@H]1O [LS, lactosucrose]	did not yield any differences	did not yield any differences	benefited; also recorded: significantly increased the intracellular uptake	benefited; also recorded: increased MK2i transfer to the tissue	modest effect on increasing the depth of delivery		
MAPKAP Kinase II inhibitory peptide [MK2i]						preserving expression	preserving expression
